Test results: patent publication US20260053811A1, “METHODS OF TREATING HYPERTENSION IN OBESE SUBJECTS” (Mineralys Therapeutics, Inc., priority 2022, published 2026)

System: hypertensive subjects
Assay: Seated automated office blood pressure (AOBP) in randomized, placebo-controlled, dose-ranging study
Assay type: in vivo, human
Method: A randomized, double-blinded, placebo-controlled, dose-ranging, multicenter study was conducted to evaluate the effect of orally administered Compound A HBr on blood pressure for the treatment of hypertension in male and female subjects ≥18 years of age.
The study consists of two parts. For enrollment into Part 1 of the study, a subject's value of plasma renin activity (PRA) must be ≤1 ng/mL/h based on morning measurement. If the value of PRA >1 ng/mL/h based on morning measurement, then subjects may be eligible to enter Part 2 of the study.
For Part 1, 163 enrolled subjects ≥18 years of age were randomized into 6 equal treatment groups (1:1:1:1:1:1) to 12.5 mg BID, 25 mg BID, 12.5 mg QD, 50 mg QD, 100 mg QD, or placebo. After a review of interim clinical data, the 2 lowest dose levels (12.5 mg QD and 12.5 mg BID) were stopped for future randomization due to a lack of consistent meaningful reduction of blood pressure, but the patients randomized to that point remained in the study through completion. Thus, after the review of interim clinical data, subjects were randomized into 4 equal treatment groups (1:1:1:1) to 25 mg BID, 50 mg QD, 100 mg QD, or placebo.
For Part 2, 36 enrolled subjects ≥18 years of age were randomized (5:1) to either 100 mg QD Compound A HBr or placebo such that the Compound A HBr treatment group consisted of approximately 30 subjects and the placebo treatment group will consist of approximately 6 subjects.
Subjects orally administered the assigned study drug (Compound A HBr or placebo) according to the assigned dosing regimen for 8 weeks beginning on Study Day 1. All subjects in Part 1 (regardless of dosing group) received BID dosing to preserve the integrity of the blind; active drug is administered as the morning dose for all QD dose groups. Subjects returned to the research facility or were seen by the clinical investigator or approved home health care professional at the end of Study Weeks 1, 2, 3, 4, 5, 6, 7, and 8 (±2 days) for protocol-defined efficacy and safety assessments and procedures, assessment of adverse events (AEs), and confirmation of compliance with study drug usage. Subjects also completed a telephone visit and blood pressure (BP) check at home approximately 3 days post last dose of study drug. Subjects attended up to 14 full clinic visits, including a pre-Screening visit, a Screening/start of Placebo Run-in visit, a second visit during Placebo Run-in, a clinic visit to initiate the ABPM procedure, a Randomization visit, 8 weekly visits during double-blind treatment, and an end-of-study visit scheduled 4 weeks after the last study treatment for final efficacy and safety assessments.
An automated oscillometric sphygmomanometer device was used to measure the subjects' systolic and diastolic blood pressure in office after approximately 5 minutes of rest in the seated position.
The primary endpoint is the change in office-measured (mean of last 2 of 5 unattended measurements using an automated oscillometric sphygmomanometer device after approximately 5 minutes of rest in the seated position) systolic blood pressure (SBP) from baseline to the end of Study Week 8.
Secondary endpoints of this study were: • (a) Change in 24-hour ambulatory blood pressure monitoring (ABPM) parameters (systolic and diastolic) from baseline to the end of Study Week 7. • (b) Change in office-measured SBP from baseline to the end of Study Weeks 1, 2, 3, 4, 5, 6, and 7. • (c) Change in office-measured diastolic blood pressure (DBP) from baseline to the end of Study Weeks 1, 2, 3, 4, 5, 6, 7, and 8. • (d) Proportion of subjects who achieve office-measured BP of ≤130/80 mm Hg by the end of Study Week 8.

[1] = Part 2, 100 mg QD, Thiazide Diuretic Use at Baseline Yes
[2] = Part 2, 100 mg QD, subgroup ACEi/ARBs No (n 1)
[3] = Part 2, 100 mg QD, subgroup ACEi/ARBs Yes
[4] = Part 2, 100 mg QD, subgroup AHTs 2
[5] = Part 2, 100 mg QD, subgroup AHTs ≥3
[6] = Part 2, 100 mg QD, subgroup Age 65-79 yr
[7] = Part 2, 100 mg QD, subgroup Age <65 yr
[8] = Part 2, 100 mg QD, subgroup Age ≥80 yr (n 1)
[9] = Part 2, 100 mg QD, subgroup BMI 25-30 kg/m^2
[10] = Part 2, 100 mg QD, subgroup BMI <25 kg/m^2
[11] = Part 2, 100 mg QD, subgroup BMI >30 kg/m^2
[12] = Part 2, 100 mg QD, subgroup PRA 1-5 ng/mL/hr
[13] = Part 2, 100 mg QD, subgroup PRA >5 ng/mL/hr
[14] = Part 2, 100 mg QD, subgroup Race Black or AA
[15] = Part 2, 100 mg QD, subgroup Race Other
[16] = Part 2, 100 mg QD, subgroup Seated SBP Tertile High
[17] = Part 2, 100 mg QD, subgroup Seated SBP Tertile Low
[18] = Part 2, 100 mg QD, subgroup Seated SBP Tertile Middle
[19] = Part 2, 100 mg QD, subgroup Sex Female
[20] = Part 2, 100 mg QD, subgroup Sex Male
[21] = pooled 50 mg QD, 100 mg QD, 12.5 mg BID and 25 mg BID cohorts (N=103)
[22] = pooled 50 mg QD, 100 mg QD, 12.5 mg BID, 25 mg BID cohorts, week 8

SMILES: CC(=O)N[C@H]1CC[C@H](NC(=O)CN2CCN(c3nncc(-c4ccc(C)cc4)n3)CC2)CC1 [Compound A HBr]
- Mean Automated Office-Measured Systolic Blood Pressure at Wk 8 [1]: 131.72 mmHg
- Mean Change from Baseline at Week 8 in Automated Office-Measured Systolic Blood Pressure [1]: −10.50 mmHg
- Automated Office-Measured Diastolic Blood Pressure, Wk 8, mean [2]: 87.00 mmHg
- Change from Baseline at Week 8 in Automated Office-Measured Diastolic Blood Pressure, mean [2]: 0.00 mmHg
- Automated Office-Measured Diastolic Blood Pressure, Wk 8, mean [3]: 71.66 mmHg
- Change from Baseline at Week 8 in Automated Office-Measured Diastolic Blood Pressure, mean [3]: −5.88 mmHg
- Automated Office-Measured Diastolic Blood Pressure, Wk 8, mean [4]: 71.58 mmHg
- Change from Baseline at Week 8 in Automated Office-Measured Diastolic Blood Pressure, mean [4]: −6.21 mmHg
- Automated Office-Measured Diastolic Blood Pressure, Wk 8, mean [5]: 73.18 mmHg
- Change from Baseline at Week 8 in Automated Office-Measured Diastolic Blood Pressure, mean [5]: −4.77 mmHg
- Automated Office-Measured Diastolic Blood Pressure, Wk 8, mean [6]: 72.38 mmHg
- Change from Baseline at Week 8 in Automated Office-Measured Diastolic Blood Pressure, mean [6]: −3.83 mmHg
- Automated Office-Measured Diastolic Blood Pressure, Wk 8, mean [7]: 72.50 mmHg
- Change from Baseline at Week 8 in Automated Office-Measured Diastolic Blood Pressure, mean [7]: −10.38 mmHg
- Automated Office-Measured Diastolic Blood Pressure, Wk 8, mean [8]: 65.00 mmHg
- Change from Baseline at Week 8 in Automated Office-Measured Diastolic Blood Pressure, mean [8]: −7.00 mmHg
- Automated Office-Measured Diastolic Blood Pressure, Wk 8, mean [9]: 70.40 mmHg
- Change from Baseline at Week 8 in Automated Office-Measured Diastolic Blood Pressure, mean [9]: −6.10 mmHg
- Automated Office-Measured Diastolic Blood Pressure, Wk 8, mean [10]: 77.00 mmHg
- Change from Baseline at Week 8 in Automated Office-Measured Diastolic Blood Pressure, mean [10]: −1.25 mmHg
- Automated Office-Measured Diastolic Blood Pressure, Wk 8, mean [11]: 73.46 mmHg
- Change from Baseline at Week 8 in Automated Office-Measured Diastolic Blood Pressure, mean [11]: −5.88 mmHg
- Automated Office-Measured Diastolic Blood Pressure, Wk 8, mean [12]: 71.93 mmHg
- Change from Baseline at Week 8 in Automated Office-Measured Diastolic Blood Pressure, mean [12]: −2.14 mmHg
- Automated Office-Measured Diastolic Blood Pressure, Wk 8, mean [13]: 71.29 mmHg
- Change from Baseline at Week 8 in Automated Office-Measured Diastolic Blood Pressure, mean [13]: −11.79 mmHg
- Automated Office-Measured Diastolic Blood Pressure, Wk 8, mean [14]: 72.00 mmHg
- Change from Baseline at Week 8 in Automated Office-Measured Diastolic Blood Pressure, mean [14]: −4.67 mmHg
- Automated Office-Measured Diastolic Blood Pressure, Wk 8, mean [15]: 72.21 mmHg
- Change from Baseline at Week 8 in Automated Office-Measured Diastolic Blood Pressure, mean [15]: −5.94 mmHg
- Automated Office-Measured Diastolic Blood Pressure, Wk 8, mean [16]: 72.09 mmHg
- Change from Baseline at Week 8 in Automated Office-Measured Diastolic Blood Pressure, mean [16]: −4.14 mmHg
- Automated Office-Measured Diastolic Blood Pressure, Wk 8, mean [17]: 72.33 mmHg
- Change from Baseline at Week 8 in Automated Office-Measured Diastolic Blood Pressure, mean [17]: −6.78 mmHg
- Automated Office-Measured Diastolic Blood Pressure, Wk 8, mean [18]: 72.10 mmHg
- Change from Baseline at Week 8 in Automated Office-Measured Diastolic Blood Pressure, mean [18]: −6.40 mmHg
- Automated Office-Measured Diastolic Blood Pressure, Wk 8, mean [19]: 70.75 mmHg
- Change from Baseline at Week 8 in Automated Office-Measured Diastolic Blood Pressure, mean [19]: −6.28 mmHg
- Automated Office-Measured Diastolic Blood Pressure, Wk 8, mean [20]: 75.00 mmHg
- Change from Baseline at Week 8 in Automated Office-Measured Diastolic Blood Pressure, mean [20]: −4.50 mmHg
- Blood pressure reduction by background thiazide diuretic (across dosing cohorts): particularly effective at reducing the blood pressure of individuals who were receiving a thiazide diuretic
- Blood pressure reduction by body mass index (BMI) (across dosing cohorts): particularly effective at reducing the blood pressure of individuals with a body mass index (BMI) of greater than 30
- Subjects with change in BPsys >−15 mmHg [21]: 41%
- Subjects with change in BPsys >−25 mmHg [21]: 25%
- Subjects achieving >−23 mmHg fall in systolic blood pressure [22]: 25%
- Subjects achieving ≥15 mmHg fall in systolic blood pressure [22]: 41%
